Assay results: patent publication US20240166631A1, “COMPOUND, METHOD FOR PRODUCING AND METHOD FOR STORING COMPOUND, METHOD FOR PRODUCING TARGETING AGENT, AND COMPOSITION” (NIHON MEDI-PHYSICS CO., LTD, priority 2021, published 2024)

Test: Evaluation of storage stability: purity of stored solid DOTAGA-DBCO by HPLC area percentage
Assay type: physicochemical
Details: for long-term storage stability (in words): refrigerating or freezing conditions, after 6 months storage
Procedure: Thereafter, the brown vial containing DOTAGA-DBCO was placed under each of the conditions: room temperature (Example 1: 21 to 25° C.); high temperature (Example 2: 40° C.); refrigerating (Example 3: 5° C.); and freezing (Example 4: -20° C.), and stored for a predetermined period.
Thereafter, the colorless transparent glass vial containing DOTAGA-DBCO was placed under the condition of room temperature (Example 5: 19 to 23° C.) and stored for a predetermined period.
Subsequently, DOTAGA-DBCO obtained by drying in the same manner as in Examples 1 to 4 was put in a brown vial, and the brown vial was placed under each of the conditions: room temperature (Comparative Example 1: 21 to 25° C.); and high temperature (Comparative Example 2: 40° C.), and stored for a predetermined period.
For DOTAGA-DBCOs in each of Examples and Comparative Examples, the purity was measured by the following measurement method at each time point: at the start of storage, after 7 days storage, after 1 month storage, after 3 months storage, and after 6 months storage. The smaller deterioration in purity with respect to the purity at the start of storage, the more excellent the storage stability.
1.0 mg of the objective compound was precisely weighed. For Examples 1 and 2 and Comparative Examples 1 and 2, a mixture of 10 mmol/L ammonium formate solution (pH 3.0)/acetonitrile for liquid chromatography (95:5) was added to make an exactly 10 mL sample solution. For Examples 3 and 4, a mixture of 10 mmol/L ammonium formate solution (pH 3.0)/methanol for liquid chromatography (95:5) was added to make an exactly 10 mL sample solution. For Example 5, methanol for liquid chromatography was added to make an exactly 10 mL sample solution.
For 10 μL of each of these sample solutions, high performance liquid chromatography measurement was conducted under the following conditions. The peak area of the sample solution was measured with automatic integration method, and the amount of these compounds was determined through area percentage method. Each sample solution was prepared one time and measured 3 times. The arithmetic average value of the three measurement results was defined as purity (%). Note that, at the start of storage, each sample solution was prepared and measured one time, respectively.
• Detector (1): ultraviolet absorptiometer (measurement wavelength: 290 nm, 308 nm) • Detector (2): ACQ-QDa (Positive scan: cone voltage 15 V, capillary voltage 0.8 V; Negative scan: cone voltage 15 V, capillary voltage 0.8 V, scanning range: m/z 50 to 1200) • Column: a stainless steel tube having an inner diameter of 4.6 mm and a length of 10 cm, packed with 3.5 μm octadecylsilylated silica gel for liquid chromatography (XBridge C18) • Column temperature: maintained at a constant temperature of about 25° C.
• Mobile phase: (Mobile phase A) 10 mmol/L ammonium formate solution (pH 3.0) and (Mobile phase B) acetonitrile were used for liquid feeding while controlling the concentration gradient (vol %) in the order of the following (i) to (v). The flow rate of each mobile phase was 1 mL/min.

[1] = storage conditions: room temperature
[2] = stored at 5° C. (refrigerating)

O=C(O)CN1CCN(CC(=O)O)CCN(C(CCC(=O)NCCC(=O)N2Cc3ccccc3C#Cc3ccccc32)C(=O)O)CCN(CC(=O)O)CC1 (stereo not shown) [Comparative Example 1, DOTAGA-DBCO]
Purity (%) of compound at storage start [1]: 96.4%
Purity (%) of compound after 1 month (stored at room temperature): 90.9%
Purity (%) of compound after 7 days (stored at room temperature): 95.5%

O=C(O)CN1CCN(CC(=O)O)CCN(C(CCC(=O)NCCC(=O)N2Cc3ccccc3C#Cc3ccccc32)C(=O)O)CCN(CC(=O)O)CC1 (stereo not shown) [Comparative Example 2, DOTAGA-DBCO]
Purity (%) of compound at storage start (storage conditions: 40° C.): 96.4%
Purity (%) of compound after 1 month (stored at 40° C.): 52.2%
Purity (%) of compound after 7 days (stored at 40° C.): 86.1%

O=C(O)CN1CCN(CC(=O)O)CCN(C(CCC(=O)NCCC(=O)N2Cc3ccccc3C#Cc3ccccc32)C(=O)O)CCN(CC(=O)O)CC1 (stereo not shown) [Example 1, DOTAGA-DBCO]
Purity (%) of compound at storage start [1]: 97.6%
Purity (%) of compound after 1 month (stored at room temperature): 96.9%
Purity (%) of compound after 3 months (stored at room temperature): 95.7%
Purity (%) of compound after 6 months (stored at room temperature): 93.6%
Purity (%) of compound after 7 days (stored at room temperature): 97.1%

O=C(O)CN1CCN(CC(=O)O)CCN(C(CCC(=O)NCCC(=O)N2Cc3ccccc3C#Cc3ccccc32)C(=O)O)CCN(CC(=O)O)CC1 (stereo not shown) [Example 2, DOTAGA-DBCO]
Purity (%) of compound at storage start (storage conditions: 40° C.): 97.6%
Purity (%) of compound after 1 month (stored at 40° C.): 96.7%
Purity (%) of compound after 3 months (stored at 40° C.): 93.9%
Purity (%) of compound after 6 months (stored at 40° C.): 92.0%
Purity (%) of compound after 7 days (stored at 40° C.): 96.9%

O=C(O)CN1CCN(CC(=O)O)CCN(C(CCC(=O)NCCC(=O)N2Cc3ccccc3C#Cc3ccccc32)C(=O)O)CCN(CC(=O)O)CC1 (stereo not shown) [Example 3, DOTAGA-DBCO]
long-term storage stability (in words): purity at the start of storage is maintained even after 6 months storage
Purity (%) of compound at storage start (storage conditions: 5° C. (refrigerating)): 96.9%
Purity (%) of compound after 1 month [2]: 97.0%
Purity (%) of compound after 3 months [2]: 93.2%
Purity (%) of compound after 6 months [2]: 96.8%
Purity (%) of compound after 7 days [2]: 97.4%

O=C(O)CN1CCN(CC(=O)O)CCN(C(CCC(=O)NCCC(=O)N2Cc3ccccc3C#Cc3ccccc32)C(=O)O)CCN(CC(=O)O)CC1 (stereo not shown) [Example 4, DOTAGA-DBCO]
long-term storage stability (in words): purity at the start of storage is maintained even after 6 months storage
Purity (%) of compound at storage start (storage conditions: −20° C. (freezing)): 96.9%
Purity (%) of compound after 1 month (stored at −20° C. (freezing)): 97.6%
Purity (%) of compound after 3 months (stored at −20° C. (freezing)): 93.5%
Purity (%) of compound after 6 months (stored at −20° C. (freezing)): 95.5%
Purity (%) of compound after 7 days (stored at −20° C. (freezing)): 97.4%

O=C(O)CN1CCN(CC(=O)O)CCN(C(CCC(=O)NCCC(=O)N2Cc3ccccc3C#Cc3ccccc32)C(=O)O)CCN(CC(=O)O)CC1 (stereo not shown) [Example 5, DOTAGA-DBCO]
Purity (%) of compound at storage start [1]: 97.5%
Purity (%) of compound after 1 month (stored at room temperature): 96.0%
Purity (%) of compound after 7 days (stored at room temperature): 97.2%
